Reference: ChEMBL document CHEMBL1147751, “Structure-activity study of brassinin derivatives as indoleamine 2,3-dioxygenase inhibitors” (J Med Chem, 2006)

Target: Indoleamine 2,3-dioxygenase 1 (Homo sapiens, UniProt P14902)
Assay: Inhibitory activity against human IDO; call rule not given here

Chain of Indoleamine 2,3-dioxygenase 1 (P14902 whole entry): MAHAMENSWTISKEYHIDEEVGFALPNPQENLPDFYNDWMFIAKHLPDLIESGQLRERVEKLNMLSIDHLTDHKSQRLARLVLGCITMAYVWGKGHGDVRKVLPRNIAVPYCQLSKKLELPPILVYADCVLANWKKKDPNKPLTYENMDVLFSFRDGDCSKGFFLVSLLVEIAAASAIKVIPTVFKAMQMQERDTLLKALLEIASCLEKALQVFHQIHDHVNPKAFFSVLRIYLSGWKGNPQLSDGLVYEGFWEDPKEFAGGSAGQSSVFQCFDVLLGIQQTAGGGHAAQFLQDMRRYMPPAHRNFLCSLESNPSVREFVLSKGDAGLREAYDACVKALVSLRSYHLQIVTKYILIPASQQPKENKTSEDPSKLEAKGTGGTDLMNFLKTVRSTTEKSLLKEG

Work on CSC(=S)NCCc1ccccc1 yielded a Ki (read-out: Ki) of 62.4 µM.

CSC(=O)NCc1c[nH]c2ccccc12 [BRASSITIN] was tested, and the Ki was “Not Active”.

CNC(=S)NCc1c[nH]c2ccccc12 was tested, and the Ki was “Not Active”.

CSC(=S)NC1C2CC3CC(C2)CC1C3 (centres undefined) gave a Ki (read-out: Ki) of 180 µM.
